These results are taken from paper PMC3447978, “High-Throughput 1,536-Well Fluorescence Polarization Assays for α1-Acid Glycoprotein and Human Serum Albumin Binding” (PLoS ONE, 2012).

For data set [1], the target named is T1, α1-acid glycoprotein (AGP) (Homo sapiens, UniProt P02763). The experiment in a line: in vitro. Particulars: human. The method, then: (§1) This system features the proteins of interest covalently bound to the surface of silica beads through the use of proprietary attachment chemistry. The surface was designed to minimize interactions with drug molecules, thus preventing non-specific binding of test substances.
(§2) AGP or HSA protein-coated beads (Sovicell, Leipzig, Germany; distributed by ADMEcell, Emeryville, CA) were thawed at room temperature for two hours. Stock solutions of each compound were diluted to a final sample concentration of 20 µM or 50 µM. Samples (45 µL) were added to 405 µL of premixed solutions of buffer and AGP or HSA coated beads and mixed thoroughly to keep the beads suspended in solution to allow for the compounds to bind to the protein coated beads, [30]. After centrifuging, 100 µL of supernatant were transferred to a 96-well plate and analyzed on an Agilent 1100 HPLC coupled to a diode array detector.
(§3) After equilibrating the column with 50 mM ammonium acetate buffer/acetonitrile (99%/1%) at a flow rate of 500 µL/min for ∼2 minutes, compounds were detected by initiating a five minute gradient to 100% acetonitrile, held for 3 minutes, followed by a one minute gradient to 1% acetonitrile, where the composition was then maintained for the final three minutes, for a total run time of 12 minutes. The diode array detector channels were set to 230 nm, 260 nm, 300 nm, and 340 nm (bandwidth = 5 nm). Data were evaluated using the Sovicell-supplied Microsoft Excel (Redmond, WA) spreadsheets, [44].

Data set [2] deals with T2, human serum albumin (HSA) (Homo sapiens, UniProt P02768). The experiment in a line: HSA 1,536-well fluorescence polarization displacement assay (dansyl sarcosine probe, Sudlow Site II). The class given is binding. On the set-up: Albumin solution from human serum (HSA, Sigma-Aldrich, St. Louis, MO); purchased Sigma-Aldrich; host or cells: human serum. The method, then: For 1,536-well format (Table 2), a 3 µL mixture of HSA and dansyl sarcosine (bound control) or 3 µL of dansyl sarcosine (unbound control) were dispensed into a 1,536-well assay plate using a BioRAPTR. The plate was centrifuged at 1,000 rpm for 15 seconds, covered and incubated for 10 minutes, and FP data were collected on a ViewLux using the optics described above.
FP was measured 15 min after compound addition. Percent inhibition was derived from the bound (i.e., protein-probe complex), or 0% neutral control, and the unbound (i.e., free probe), or 100% displaced control, respectively, by calculating their mean values, and normalizing the data using GraphPad Prism 4.
Background: Polarisation of emitted light reports the rotation of a fluorescent probe.

The target in data set [3] is T2, human serum albumin (HSA). Nature of the data set: HSA 96-well fluorescence polarization displacement assay (dansyl sarcosine probe, Sudlow Site II).
In a further data set the target is AGP protein-coated beads (Homo sapiens, UniProt P02763). Nature of the data set: in vitro. Particulars: protein-coated bead Kd values. The method, then:
as §1, §2, §3

The target in data set [4] is T1, α1-acid glycoprotein (AGP). The experiment in a line: AGP LOPAC1280 1,536-well qHTS screen (FP). (qHTS replaces the single test concentration by a dilution series.)
The target in a further data set is HSA protein-coated beads (Homo sapiens, UniProt P02768). The experiment in a line: HSA protein-coated bead assay with HPLC analysis. The class given is binding. Particulars: compound 50 µM. The method, then: as §1, §2, §3
For data set [5], the target named is T1, α1-acid glycoprotein (AGP). The experiment in a line: biochemical.
The target in data set [6] is T2, human serum albumin (HSA). Nature of the data set: in vitro.
In data set [7] the target is T1, α1-acid glycoprotein (AGP). The experiment in a line: biochemical. The source holds these as a separate data set.
The target in data set [8] is T2, human serum albumin (HSA). Nature of the data set: biochemical.
The mark [9] stands for this setting: read-out: HSA 1,536-well IC50 (extrapolated).
The mark [10] stands for this setting: IC50 in AGP LOPAC1280 screen, validation set members present in the LOPAC1280 collection.
Setting [11] is: AGP 1,536-well Screen IC50, LOPAC1280 screen, top compound concentration 144 µM.

T1 sequence (P02763 19-201): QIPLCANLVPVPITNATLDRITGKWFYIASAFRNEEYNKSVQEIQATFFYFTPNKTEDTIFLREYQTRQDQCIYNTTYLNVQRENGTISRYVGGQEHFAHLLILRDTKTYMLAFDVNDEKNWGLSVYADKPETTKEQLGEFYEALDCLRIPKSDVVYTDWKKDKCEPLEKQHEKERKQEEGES
Chain of AGP protein-coated beads (P02763 19-201): as above
Chain of HSA protein-coated beads (P02768 25-609): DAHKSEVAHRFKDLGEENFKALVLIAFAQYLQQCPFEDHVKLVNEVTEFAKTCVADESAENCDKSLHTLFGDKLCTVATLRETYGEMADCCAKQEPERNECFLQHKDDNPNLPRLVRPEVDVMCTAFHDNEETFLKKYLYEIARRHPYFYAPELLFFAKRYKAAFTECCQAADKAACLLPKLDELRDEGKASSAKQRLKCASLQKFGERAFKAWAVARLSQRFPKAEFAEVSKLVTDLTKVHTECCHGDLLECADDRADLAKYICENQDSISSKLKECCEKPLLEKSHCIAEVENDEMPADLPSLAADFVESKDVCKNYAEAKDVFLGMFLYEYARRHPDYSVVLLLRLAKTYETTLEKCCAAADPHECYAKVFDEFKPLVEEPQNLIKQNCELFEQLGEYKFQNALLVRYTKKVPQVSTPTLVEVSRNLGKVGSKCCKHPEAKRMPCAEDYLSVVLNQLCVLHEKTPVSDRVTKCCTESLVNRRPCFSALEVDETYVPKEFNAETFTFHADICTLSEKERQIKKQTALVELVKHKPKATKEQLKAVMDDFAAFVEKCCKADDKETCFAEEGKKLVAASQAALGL
T2 sequence (P02768 25-609): as above

What is called Kd is the equilibrium constant for the complex coming apart. Read a high Kd as weaker binding. In the case of `COc1ccc2c(c1)c(CC(=O)O)c(C)n2C(=O)c1ccc(Cl)cc1` [Indomethacin, indomethacin], the Kd at 2 min, 50 µM in data set [1] was 78.8 µM.
The term IC50 denotes the concentration that gives 50% inhibition. In the case of `CC(C)NCC(O)COc1cccc2ccccc12` (centres unmarked) [Propranolol, propranolol], the 50% inhibitory concentration (IC50) in data set [2] (setting [9]) is over 1510 µM; in [3], 5330 µM; in [4] (setting [10]), 50.1 µM; in [4] (average IC50, intraplate control, AGP screen, LOPAC1280 screen intraplate control), 48.7 µM. For the same molecule, binding in data set [1] was characterised by a dissociation constant (Kd at 2 min, 50 µM) of 19.2 µM. The “Ratio (HSA Kd / AGP Kd)” value at AGP protein-coated beads is reported as 29. The affinity on HSA protein-coated beads, expressed as Kd, was 548 µM.
Regarding `O=C1N(c2ccccc2)c2ccccc2C1(Cc1ccncc1)Cc1ccncc1` [Linopirdine, linopirdine], the IC50 is 21.7 µM in data set [5], 35.5 µM in data set [4] and over 151 µM in data set [6] (probe dansyl sarcosine).
On to `CC#C[C@]1(O)CC[C@H]2[C@@H]3CCC4=CC(=O)CCC4=C3[C@@H](c3ccc(N(C)C)cc3)C[C@@]21C` [Mifepristone, mifepristone], for which the IC50 in data set [5] was 2.51 µM; in [4] (setting [11]), 6.31 µM; in [6] (probe dansyl sarcosine) it was over 151 µM.
In data set [1], `CN(C)CCCN1c2ccccc2Sc2ccc(Cl)cc21` [Chlorpromazine, chlorpromazine] showed a Kd at 2 min, 50 µM of 7.68 µM. In addition, it took 44.7 µM to reach half-maximal inhibition in data set [4] (setting [10]) (IC50).
In the case of `CN(C)CCC=C1c2ccccc2CCc2ccccc21` [Amitriptyline, amitriptyline], the IC50 was over 1510 µM in [2] (read-out: HSA 1,536-well IC50), 6750 µM in [3], 224 µM in [5] and 221 µM in data set [7]. In data set [1], this molecule had an equilibrium dissociation constant (Kd) at 2 min, 50 µM of 1.89 µM. Also, the “Ratio (HSA Kd / AGP Kd)” value on AGP protein-coated beads was determined as 63. The same molecule gave a Kd on HSA protein-coated beads of 119 µM.
Take `Nc1nc(N)c2nc(CNc3ccc(C(=O)N[C@@H](CCC(=O)O)C(=O)O)cc3)cnc2n1` [Aminopterin, aminopterin]: the IC50 in data set [8] is 8.91 µM; in data set [3], 22 µM; in data set [5], 306 µM; in [4], 56.2 µM.
Regarding `CCCCC1C(=O)N(c2ccccc2)N(c2ccccc2)C1=O` [Phenylbutazone, phenylbutazone], the IC50 in data set [5] was over 1000 µM; in [7], 1050 µM. For the same molecule, the affinity in data set [1], expressed as Kd at 2 min, 50 µM, was 247 µM.
In the case of `COc1cc2nc(N3CCN(C(=O)OCc4ccccc4)C(C(=O)NC(C)(C)C)C3)nc(N)c2cc1OC` [L-765,314], the IC50 in data set [8] was found to be 70.8 µM; in data set [3], 5.21 µM; in [5], 2.03 µM; in data set [4], 14.1 µM.
For the molecule `CN(C)CCCN1c2ccccc2CCc2ccccc21` [Imipramine, imipramine], the IC50 in data set [2] (setting [9]) is over 1510 µM; in data set [3], 5200 µM. Further, in data set [1], binding was put at a Kd at 2 min, 50 µM of 10.4 µM. Further, the “Ratio (HSA Kd / AGP Kd)” value on AGP protein-coated beads is given as 14. The molecule further had a Kd at HSA protein-coated beads of 149 µM.
In the case of `CCC(C)N(C)C(=O)c1cc2ccccc2c(-c2ccccc2Cl)n1` (centres unmarked) [PK 11195], the IC50 is 23.9 µM in data set [5], 22.4 µM in data set [4] and over 151 µM in [6] (probe dansyl sarcosine).
As to `OCc1ccc(-c2nn(Cc3ccccc3)c3ccccc23)o1` [YC-1], the IC50 was found to be 44.7 µM in [8], 5.07 µM in data set [3], 4.83 µM in data set [5] and 5.62 µM in data set [4] (setting [11]).
For the molecule `OCCN(CCO)c1nc(N2CCCCC2)c2nc(N(CCO)CCO)nc(N3CCCCC3)c2n1` [Dipyridamole, dipyridamole], the IC50 in data set [2] (read-out: HSA 1,536-well IC50) was over 1510 µM; in [8], 40 µM; in [3], 62.2 µM. The same molecule registered a Kd on HSA protein-coated beads of 35.6 µM.
Consider `COc1ccc(C(CN(C)C)C2(O)CCCCC2)cc1` (centres unmarked) [Venlafaxine, venlafaxine], for which the half-maximal inhibitory concentration (IC50) in data set [3] is over 1000 µM; in data set [5] it was over 1000 µM; in data set [4], over 144 µM; in data set [6], over 151 µM.
On to `CCCC(=O)NCCc1c2n(c3ccc(OC)cc13)CCCc1ccccc1-2` [K 185], for which the IC50 in data set [8] came out at 56.2 µM; in data set [3] it was 83.2 µM; in data set [5], 10.5 µM; in [4] it was 20 µM.
For the molecule `Nc1ccc2c3c(cccc13)C(=O)NC2=O` [4-Amino-1,8-naphthalimide, 4-amino-1,8-naphthalimide], the IC50 turned out to be 7.94 µM in data set [8], 37 µM in data set [3], 832 µM in data set [5] and 11.2 µM in data set [4] (setting [11]).
Consider `CN(C)c1cc2c(Nc3ccc4c(cnn4Cc4ccccc4)c3)ncnc2cn1` [GW2974], for which the IC50 is 7.94 µM in data set [8], 4.65 µM in data set [3] and over 144 µM in data set [4].
As for `C=CCc1ccccc1OCC(O)CNC(C)C` (centres unmarked) [Alprenolol, alprenolol], the IC50 was over 1510 µM in data set [2] (read-out: HSA 1,536-well IC50), 1700 µM in [3], 273 µM in data set [5] and 276 µM in data set [7]. Also, the Kd at 2 min, 50 µM in data set [1] was determined as 33.8 µM. Also, the “HSA Kd” value at HSA protein-coated beads is listed as “apparent inability to bind to the HSA protein coated beads”.
